Ends that are not written are not given here.
Target: T1, full-length AimR (wild-type) (Bacillus phage SPbeta, UniProt O64094)
T1 construct: 6xHis (C); made in house; host or cells: E. coli BL21 (DE3)
Test: Isothermal titration calorimetry (ITC), AimP vs wild-type AimR
Set-up: species or system Bacillus subtilis SPbeta phage
Conditions: wild-type full-length AimR 10–20 μM in cell, AimP 200–500 μM in syringe; 20 mM Tris-HCl (pH 8.0), 150 mM NaCl; 25°C; MicroCal iTC200; read-out: Kd (dissociation constant) for AimP binding
Experimental: DNA sequence encoding full-length AimR from Bacillus subtilis SPbeta phage was cloned into the pET-28a vector with a C-terminal 6×His-tag. The construct was introduced into E.coli BL21 (DE3) cells. The recombinant strains were cultured in LB medium at 37°C until the OD600 reached 0.8. After 16 h of induction with 0.5 mM IPTG at 16°C, the cells were harvested by centrifugation at 5, 000 rpm for 30 min at 4°C. The pelleted cells were then resuspended in the lysis buffer containing 50 mM Tris-HCl (pH 8.0) and 150 mM NaCl, and subsequently lysed by ultrasonication. The lysate was then centrifuged at 17,000 rpm for 30 min at 4°C. Protein purification was carried out following the routine procedure (Jiang et al., 2017). Briefly, the supernatant was loaded onto a Ni-NTA column (Qiagen). The target protein was eluted with 50 mM Tris-HCl (pH 8.0) containing 150 mM NaCl and 250 mM imidazole. The fractions containing purified protein were pooled, concentrated to 0.5 ml and loaded onto a Superdex200 increase column (GE Healthcare) equilibrated with buffer containing 20 mM Tris-HCl (pH 8.0) and 150 mM NaCl. All the AimR mutant proteins were purified following the same protocol.
ITC experiments were performed using a MicroCal iTC200 instrument (Malvern Instruments Ltd.). […] The resulting isotherms were recorded and fitted with Origin software (OriginLab).

T1 sequence (O64094 whole entry): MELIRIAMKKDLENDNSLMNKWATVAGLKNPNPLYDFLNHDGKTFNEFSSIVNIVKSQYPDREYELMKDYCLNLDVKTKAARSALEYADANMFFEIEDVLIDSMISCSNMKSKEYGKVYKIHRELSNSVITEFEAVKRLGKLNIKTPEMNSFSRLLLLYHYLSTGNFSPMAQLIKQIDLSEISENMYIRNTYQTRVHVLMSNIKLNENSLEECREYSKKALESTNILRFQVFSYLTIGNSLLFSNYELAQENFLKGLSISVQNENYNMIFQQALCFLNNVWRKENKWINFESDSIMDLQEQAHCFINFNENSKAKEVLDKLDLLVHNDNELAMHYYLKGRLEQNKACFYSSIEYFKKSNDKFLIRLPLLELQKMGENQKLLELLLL

GMPRGA [AimP]
Kd: 40 nM

— article PMC6340889, “Structural basis of AimP signaling molecule recognition by AimR in Spbeta group of bacteriophages” (Protein & Cell, 2018)
